This passage reports IC50 results from patent publication US20240207263A1, “SELECTIVE MODULATORS OF ATAXIA TELA[…] (ATM) KINASE AND USES THEREOF” (priority 2021, published 2024).

As a reminder, the IC50 is the concentration needed to halve the response being measured.

Sequence of ATM (Q13315 whole entry, looked up): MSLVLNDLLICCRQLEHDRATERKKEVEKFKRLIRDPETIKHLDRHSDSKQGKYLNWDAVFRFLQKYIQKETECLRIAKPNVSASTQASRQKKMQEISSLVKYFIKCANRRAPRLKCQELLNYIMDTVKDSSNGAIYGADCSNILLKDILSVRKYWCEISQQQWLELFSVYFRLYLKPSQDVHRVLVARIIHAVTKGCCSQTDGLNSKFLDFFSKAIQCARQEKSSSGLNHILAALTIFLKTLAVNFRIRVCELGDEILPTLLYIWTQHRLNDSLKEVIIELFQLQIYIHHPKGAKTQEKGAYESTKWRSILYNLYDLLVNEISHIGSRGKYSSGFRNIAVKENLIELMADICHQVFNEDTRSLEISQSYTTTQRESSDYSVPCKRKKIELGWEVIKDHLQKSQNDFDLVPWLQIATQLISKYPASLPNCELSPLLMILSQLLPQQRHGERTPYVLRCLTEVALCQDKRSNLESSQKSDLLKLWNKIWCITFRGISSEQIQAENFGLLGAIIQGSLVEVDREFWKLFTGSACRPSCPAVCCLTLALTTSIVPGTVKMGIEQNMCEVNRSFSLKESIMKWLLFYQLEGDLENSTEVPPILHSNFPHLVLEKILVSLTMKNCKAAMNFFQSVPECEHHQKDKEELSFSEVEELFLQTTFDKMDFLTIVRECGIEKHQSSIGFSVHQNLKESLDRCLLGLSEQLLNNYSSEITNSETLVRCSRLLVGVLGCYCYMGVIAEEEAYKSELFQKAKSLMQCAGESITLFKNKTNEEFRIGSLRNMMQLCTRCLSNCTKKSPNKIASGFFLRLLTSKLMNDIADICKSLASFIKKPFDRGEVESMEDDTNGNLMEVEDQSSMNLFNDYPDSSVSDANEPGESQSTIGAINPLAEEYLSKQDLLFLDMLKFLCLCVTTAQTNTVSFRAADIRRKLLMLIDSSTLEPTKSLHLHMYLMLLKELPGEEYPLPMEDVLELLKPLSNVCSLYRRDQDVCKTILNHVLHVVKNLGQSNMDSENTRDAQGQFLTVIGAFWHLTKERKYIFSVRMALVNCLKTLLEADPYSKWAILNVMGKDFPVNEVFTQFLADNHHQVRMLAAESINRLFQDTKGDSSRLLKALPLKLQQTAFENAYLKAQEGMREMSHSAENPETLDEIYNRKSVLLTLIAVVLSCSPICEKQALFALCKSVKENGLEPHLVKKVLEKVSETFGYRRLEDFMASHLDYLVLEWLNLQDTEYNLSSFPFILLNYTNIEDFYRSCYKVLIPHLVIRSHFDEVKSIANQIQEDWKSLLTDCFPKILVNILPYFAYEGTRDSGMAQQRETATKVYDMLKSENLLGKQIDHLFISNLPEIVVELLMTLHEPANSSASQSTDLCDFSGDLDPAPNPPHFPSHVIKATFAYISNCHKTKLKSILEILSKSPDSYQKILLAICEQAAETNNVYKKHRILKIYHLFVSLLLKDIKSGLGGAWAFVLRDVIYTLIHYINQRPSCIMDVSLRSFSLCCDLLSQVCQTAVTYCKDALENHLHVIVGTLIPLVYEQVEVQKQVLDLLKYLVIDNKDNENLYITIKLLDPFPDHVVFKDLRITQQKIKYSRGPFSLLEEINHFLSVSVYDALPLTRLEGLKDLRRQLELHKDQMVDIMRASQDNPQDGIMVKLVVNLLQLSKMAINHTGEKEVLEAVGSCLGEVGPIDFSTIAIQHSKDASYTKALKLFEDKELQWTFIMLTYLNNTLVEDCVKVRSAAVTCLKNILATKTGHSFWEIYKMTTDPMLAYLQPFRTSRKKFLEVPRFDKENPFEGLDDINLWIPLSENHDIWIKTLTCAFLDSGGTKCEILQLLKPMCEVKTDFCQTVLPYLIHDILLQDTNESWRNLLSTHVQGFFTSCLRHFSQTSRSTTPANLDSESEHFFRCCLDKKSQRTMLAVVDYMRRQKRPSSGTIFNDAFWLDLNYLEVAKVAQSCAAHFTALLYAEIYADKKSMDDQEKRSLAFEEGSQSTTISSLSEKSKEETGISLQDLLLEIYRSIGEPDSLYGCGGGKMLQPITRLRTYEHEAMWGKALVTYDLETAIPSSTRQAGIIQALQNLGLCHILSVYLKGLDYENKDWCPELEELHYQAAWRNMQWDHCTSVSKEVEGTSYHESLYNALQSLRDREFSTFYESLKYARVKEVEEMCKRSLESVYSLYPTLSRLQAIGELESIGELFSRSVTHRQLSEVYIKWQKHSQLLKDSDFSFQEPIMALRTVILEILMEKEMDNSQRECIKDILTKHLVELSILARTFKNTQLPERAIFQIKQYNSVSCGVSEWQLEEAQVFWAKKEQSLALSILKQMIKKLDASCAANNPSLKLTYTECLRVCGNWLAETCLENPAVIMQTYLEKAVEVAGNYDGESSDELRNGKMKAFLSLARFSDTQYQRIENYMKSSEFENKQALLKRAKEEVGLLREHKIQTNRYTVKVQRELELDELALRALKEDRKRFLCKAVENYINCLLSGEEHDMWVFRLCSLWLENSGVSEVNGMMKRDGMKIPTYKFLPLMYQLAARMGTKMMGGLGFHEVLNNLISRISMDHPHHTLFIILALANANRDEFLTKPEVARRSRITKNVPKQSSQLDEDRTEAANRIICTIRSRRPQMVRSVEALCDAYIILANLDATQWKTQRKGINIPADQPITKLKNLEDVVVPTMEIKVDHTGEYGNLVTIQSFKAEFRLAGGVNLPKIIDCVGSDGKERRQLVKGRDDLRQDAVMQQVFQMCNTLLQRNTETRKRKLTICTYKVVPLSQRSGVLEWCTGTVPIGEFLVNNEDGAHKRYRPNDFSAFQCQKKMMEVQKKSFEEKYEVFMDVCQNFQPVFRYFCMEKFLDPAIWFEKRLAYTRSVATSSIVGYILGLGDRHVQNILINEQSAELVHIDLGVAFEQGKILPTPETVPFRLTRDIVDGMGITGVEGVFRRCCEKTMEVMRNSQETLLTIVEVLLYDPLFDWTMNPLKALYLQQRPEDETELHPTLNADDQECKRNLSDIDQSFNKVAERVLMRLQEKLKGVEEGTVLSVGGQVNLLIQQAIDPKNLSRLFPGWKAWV

The test addresses ATM (Homo sapiens (Human), UniProt Q13315). As to the kind of experiment: biochemical. It counts as biochemical. The settings on record: read-out: ATM IC50. From the text: Assay a): ATM Biochemical Potency
Data was collected by Caliper.
With `CC(C)n1c(=O)n(C)c2nnc3ccc(-c4ccc(COCCN5CC[C@H](F)C5)nc4)cc3c21` [Example 34, (S)-8-(6-((2-(3-fluoropyrrolidin-1-yl)ethoxy)methyl)pyridin-3-yl)-1-isopropyl-3-methyl-1H-imidazo[4,5-c]cinnolin-2(3H)-one], the IC50 is 47 nM. For `CC(C)n1c(=O)n(C)c2nnc3ccc(-c4ccc(COCCN5CCC[C@H]5C)nc4)cc3c21` [Example 35, (R)-1-isopropyl-3-methyl-8-(6-((2-(2-methylpyrrolidin-1-yl)ethoxy)methyl)pyridin-3-yl)-1H-imidazo[4,5-c]cinnolin-2(3H)-one], the IC50 turned out to be 43 nM.

For the compound `CC(C)n1c(=O)n(C)c2nnc3ccc(-c4ccc(COCCN5CC(N(C)C)C5)nc4)cc3c21` [Example 37, 8-(6-((2-(3-(dimethylamino)azetidin-1-yl)ethoxy)methyl)pyridin-3-yl)-1-isopropyl-3-methyl-1H-imidazo[4,5-c]cinnolin-2(3H)-one], the IC50 was 78 nM. On to `CC(C)n1c(=O)n(C)c2nnc3ccc(-c4ccc(COCCN5CCCC(F)C5)nc4)cc3c21` (centres unmarked) [Example 38, 8-(6-((2-(3-fluoropiperidin-1-yl)ethoxy)methyl)pyridin-3-yl)-1-isopropyl-3-methyl-1H-imidazo[4,5-c]cinnolin-2(3H)-one], for which the IC50 came to 57 nM.

As to `CC(C)n1c(=O)n(C)c2nnc3ccc(-c4ccc(COCCN5CC6CCC5C6)nc4)cc3c21` (centres unmarked) [Example 39, 8-(6-((2-(2-azabicyclo[2.2.1]heptan-2-yl)ethoxy)methyl)pyridin-3-yl)-1-isopropyl-3-methyl-1H-imidazo[4,5-c]cinnolin-2(3H)-one], the IC50 is 73 nM. Take `CC(C)n1c(=O)n(C)c2nnc3ccc(-c4ccc(COCCN5CCCC6(CCC6)C5)nc4)cc3c21` [Example 40, 8-(6-((2-(6-azaspiro[3.5]nonan-6-yl)ethoxy)methyl)pyridin-3-yl)-1-isopropyl-3-methyl-1H-imidazo[4,5-c]cinnolin-2(3H)-one]: the IC50 was determined as 24 nM. Under `COC1CCCN(CCOCc2ccc(-c3ccc4nnc5c(c4c3)n(C(C)C)c(=O)n5C)cn2)C1` (centres unmarked) [Example 41, 1-isopropyl-8-(6-((2-(3-methoxypiperidin-1-yl)ethoxy)methyl)pyridin-3-yl)-3-methyl-1H-imidazo[4,5-c]cinnolin-2(3H)-one] stands 50 nM. Under `CC(C)n1c(=O)n(C)c2nnc3ccc(-c4ccc(COCCN5CC[C@H](N(C)C)C5)nc4)cc3c21` [Example 42, (S)-8-(6-((2-(3-(dimethylamino)pyrrolidin-1-yl)ethoxy)methyl)pyridin-3-yl)-1-isopropyl-3-methyl-1H-imidazo[4,5-c]cinnolin-2(3H)-one] stands 44 nM. For `COC1CCN(CCOCc2ccc(-c3ccc4nnc5c(c4c3)n(C(C)C)c(=O)n5C)cn2)CC1` [Example 44, 1-isopropyl-8-(6-((2-(4-methoxypiperidin-1-yl)ethoxy)methyl)pyridin-3-yl)-3-methyl-1H-imidazo[4,5-c]cinnolin-2(3H)-one], the IC50 stood at 12 nM.

Turning to `CC(C)n1c(=O)n(C)c2nnc3ccc(-c4ccc(COCCN5[C@H](C)CC[C@@H]5C)nc4)cc3c21` [Example 45, 8-(6-((2-((2R,5S)-2,5-dimethylpyrrolidin-1-yl)ethoxy)methyl)pyridin-3-yl)-1-isopropyl-3-methyl-1H-imidazo[4,5-c]cinnolin-2(3H)-one], the IC50 was 84 nM. In the case of `CC(C)n1c(=O)n(C)c2nnc3ccc(-c4ccc(COCCN5CC[C@@H](N(C)C)C5)nc4)cc3c21` [Example 46, (R)-8-(6-((2-(3-(dimethylamino)pyrrolidin-1-yl)ethoxy)methyl)pyridin-3-yl)-1-isopropyl-3-methyl-1H-imidazo[4,5-c]cinnolin-2(3H)-one] it was 76 nM; in that of `CC(C)n1c(=O)n(C)c2nnc3ccc(-c4ccc(COCCN5CCC(OC(F)(F)F)CC5)nc4)cc3c21` [Example 47, 1-isopropyl-3-methyl-8-(6-((2-(4-(trifluoromethoxy)piperidin-1-yl)ethoxy)methyl)pyridin-3-yl)-1H-imidazo[4,5-c]cinnolin-2(3H)-one], 2.2 nM. On to `CC(C)n1c(=O)n(C)c2nnc3ccc(-c4ccc(COCCN5CC6C(C5)C6(F)F)nc4)cc3c21` (centres unmarked) [Example 48, 8-(6-((2-(6,6-difluoro-3-azabicyclo[3.1.0]hexan-3-yl)ethoxy)methyl)pyridin-3-yl)-1-isopropyl-3-methyl-1H-imidazo[4,5-c]cinnolin-2(3H)-one], for which the IC50 stood at 17 nM. In the case of `CC(C)n1c(=O)n(C)c2nnc3ccc(-c4ccc(COCCN5CCC6(CCC6)CC5)nc4)cc3c21` [Example 49, 8-(6-((2-(7-azaspiro[3.5]nonan-7-yl)ethoxy)methyl)pyridin-3-yl)-1-isopropyl-3-methyl-1H-imidazo[4,5-c]cinnolin-2(3H)-one], the IC50 is 2.8 nM. In the case of `CC(C)n1c(=O)n(C)c2nnc3ccc(-c4ccc(COCCN5CC[C@@H](OC(F)F)C5)nc4)cc3c21` [Example 50, (R)-8-(6-((2-(3-(difluoromethoxy)pyrrolidin-1-yl)ethoxy)methyl)pyridin-3-yl)-1-isopropyl-3-methyl-1H-imidazo[4,5-c]cinnolin-2(3H)-one] it was 11 nM; in that of `CC(C)n1c(=O)n(C)c2nnc3ccc(-c4ccc(COCCN5CC[C@H](OC(F)F)C5)nc4)cc3c21` [Example 51, (S)-8-(6-((2-(3-(difluoromethoxy)pyrrolidin-1-yl)ethoxy)methyl)pyridin-3-yl)-1-isopropyl-3-methyl-1H-imidazo[4,5-c]cinnolin-2(3H)-one], 7.6 nM; in that of `CC(C)n1c(=O)n(C)c2nnc3ccc(-c4ccc([C@@H](C)OCCN5CCC(OC(F)(F)F)CC5)nc4)cc3c21` [Example 58, (R)-1-isopropyl-3-methyl-8-(6-(1-(2-(4-(trifluoromethoxy)piperidin-1-yl)ethoxy)ethyl)pyridin-3-yl)-1H-imidazo[4,5-c]cinnolin-2(3H)-one], 1.4 nM. Under `CC(C)n1c(=O)n(C)c2nnc3ccc(-c4ccc([C@@H](C)OCCN5CCC(OC(F)(F)F)C5)nc4)cc3c21` (some centres unmarked) [Example 60] stands 2.8 nM; under `CC(C)n1c(=O)n(C)c2nnc3ccc(-c4ccc([C@@H](C)OCCN5CCC(C)(C)C5)nc4)cc3c21` [Example 61, (R)-8-(6-(1-(2-(3,3-dimethylpyrrolidin-1-yl)ethoxy)ethyl)pyridin-3-yl)-1-isopropyl-3-methyl-1H-imidazo[4,5-c]cinnolin-2(3H)-one], 3.4 nM. As to `CO[C@@H]1CCN(CCO[C@@H](C)c2ccc(-c3ccc4nnc5c(c4c3)n(C(C)C)c(=O)n5C)cn2)C1` [Example 64, 1-isopropyl-8-(6-((S)-1-(2-((R)-3-methoxypyrrolidin-1-yl)ethoxy)ethyl)pyridin-3-yl)-3-methyl-1H-imidazo[4,5-c]cinnolin-2(3H)-one], the IC50 was 19 nM. In the case of `CO[C@H]1CCN(CCO[C@@H](C)c2ccc(-c3ccc4nnc5c(c4c3)n(C(C)C)c(=O)n5C)cn2)C1` [Example 65, 1-isopropyl-8-(6-((S)-1-(2-((S)-3-methoxypyrrolidin-1-yl)ethoxy)ethyl)pyridin-3-yl)-3-methyl-1H-imidazo[4,5-c]cinnolin-2(3H)-one] it was 167 nM; in that of `CC(C)n1c(=O)n(C)c2nnc3ccc(-c4ccc([C@@H](C)OCCN5CC6CC6C5)nc4)cc3c21` (stereo partly drawn) [Example 66, 8-(6-((1R)-1-(2-(3-azabicyclo[3.1.0]hexan-3-yl)ethoxy)ethyl)pyridin-3-yl)-1-isopropyl-3-methyl-1H-imidazo[4,5-c]cinnolin-2(3H)-one], 10 nM; in that of `CC(C)n1c(=O)n(C)c2nnc3ccc(-c4ccc([C@H](C)OCCN5CC6CC6C5)nc4)cc3c21` (stereo partly drawn) [Example 67, 8-(6-((1S)-1-(2-(3-azabicyclo[3.1.0]hexan-3-yl)ethoxy)ethyl)pyridin-3-yl)-1-isopropyl-3-methyl-1H-imidazo[4,5-c]cinnolin-2(3H)-one], 158 nM. In the case of `CC(C)n1c(=O)n(C)c2nnc3ccc(-c4ccc([C@H](C)OCCN5CCC(F)CC5)nc4)cc3c21` [Example 68, (S)-8-(6-(1-(2-(4-fluoropiperidin-1-yl)ethoxy)ethyl)pyridin-3-yl)-1-isopropyl-3-methyl-1H-imidazo[4,5-c]cinnolin-2(3H)-one] it was 160 nM. In the case of `CC(C)n1c(=O)n(C)c2nnc3ccc(-c4ccc([C@H](C)OCCN5CCC(C)(C)CC5)nc4)cc3c21` [Example 72, (S)-8-(6-(1-(2-(4,4-dimethylpiperidin-1-yl)ethoxy)ethyl)pyridin-3-yl)-1-isopropyl-3-methyl-1H-imidazo[4,5-c]cinnolin-2(3H)-one], the IC50 stood at 50 nM. In the case of `CC(C)n1c(=O)n(C)c2nnc3ccc(-c4ccc([C@H](C)OCCN5CCC(F)(F)CC5)nc4)cc3c21` [Example 74, (S)-8-(6-(1-(2-(4,4-difluoropiperidin-1-yl)ethoxy)ethyl)pyridin-3-yl)-1-isopropyl-3-methyl-1H-imidazo[4,5-c]cinnolin-2(3H)-one], the IC50 came to 179 nM.

In the case of `CC(C)n1c(=O)n(C)c2nnc3ccc(-c4ccc([C@@H](C)OCCN5CCC(F)(F)CC5)nc4)cc3c21` [Example 75, (R)-8-(6-(1-(2-(4,4-difluoropiperidin-1-yl)ethoxy)ethyl)pyridin-3-yl)-1-isopropyl-3-methyl-1H-imidazo[4,5-c]cinnolin-2(3H)-one], the IC50 was 19 nM. Consider `CC(C)n1c(=O)n(C)c2nnc3ccc(-c4ccc([C@@H](C)OCCN5CC[C@H](C)C5)nc4)cc3c21` [Example 78, 1-isopropyl-3-methyl-8-(6-((R)-1-(2-((S)-3-methylpyrrolidin-1-yl)ethoxy)ethyl)pyridin-3-yl)-1H-imidazo[4,5-c]cinnolin-2(3H)-one], for which the IC50 came to 6.4 nM. In the case of `CC(C)n1c(=O)n(C)c2nnc3ccc(-c4ccc([C@@H](C)OCCN5CC[C@@H](S(C)(=O)=O)C5)nc4)cc3c21` [Example 79, 1-isopropyl-3-methyl-8-(6-((R)-1-(2-((R)-3-(methylsulfonyl)pyrrolidin-1-yl)ethoxy)ethyl)pyridin-3-yl)-1H-imidazo[4,5-c]cinnolin-2(3H)-one] it was 37 nM.
